The source of these data is patent EP4722213A1, “NITROGEN-CONTAINING FUNCTIONAL GROUP-SUBSTITUTED PYRIDAZINOPYRIDONE DERIVATIVE AND USE THEREOF” (Sichuan Huiyu Pharmaceutical Co., Ltd., priority 2023, dated 2024).

Series [1] can be described thus: Rat liver microsomal metabolic stability. Type of series: in vitro ADME. The following applies: rat liver microsomes. The method, boiled down:
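Rat liver microsomes (1 mg/mL working solution) with test compound (working solution 100 µM) were pre-incubated 5 min at 37 °C, then started with NADPH (4.0 mM working solution). Residual compound measured by LC-MS/MS over time. T1/2 taken from first-order decay, scaled to CLint and hepatic CL with fu = 1.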
(Liver microsomes are vesicles of endoplasmic reticulum, rich in cytochrome P450 enzymes.)

Series [2] concerns the target T1, CYP2C19 (Homo sapiens, UniProt P33261).
T1 construct: human liver microsomes were used as the CYP450 enzyme source; from tissue; host or cells: human liver microsomes
As to the kind of experiment: Inhibition of hepatic drug-metabolizing enzymes in human liver microsomes. The format is in vitro ADME. The following applies: human liver microsomes; read-out: Inhibitory activity on drug-metabolizing enzymes (IC50, µM) CYP2C19. The source says: (§1) The main site of drug metabolism is the liver, and the main component of the mixed-function oxidase system present in the liver is the CYP450 enzyme. This enzyme system causes most clinically observed drug-drug interactions, which in turn leads to an increased incidence of adverse drug reactions. CYP450 is a group of supergene family composed of many isozymes, wherein CYP3A4 acts as a major metabolizing enzyme and is involved in the metabolism of nearly half of clinically used drugs. Similarly, CYP2C9 and CYP2C19 also act as important metabolizing enzymes and are involved in the metabolism of various drugs clinically. Therefore, evaluating the risk of drug-drug interactions by testing the inhibitory activity of compounds on CYP450 enzymes at an early stage can improve the safety of medication use.
(§2) In the present disclosure, human liver microsomes were used as the CYP450 enzyme source. The specific probe substrates for each CYP isoenzyme (wherein CYP3A4 used two substrates, midazolam and testosterone, denoted as CYP3A4-M and CYP3A4-T respectively) were incubated with a series of concentrations of the test compound in the presence of the cofactor NADPH. The production amount of metabolites of probe substrates in the incubation system was determined by LC-MS/MS, and the IC50 values of the test compound against each CYP450 enzyme subtype were calculated to evaluate its inhibitory effect on each CYP450 enzyme subtype. During the experiment, 49 µL of PBS, 50 µL of probe substrate, and 50 µL of human liver microsome working solution were sequentially added to the incubation system, followed by the addition of 1 µL of the test compound working solution at each concentration, and the mixture was mixed well. After pre-incubation at 37°C for 5 min, 50 µL of NADPH was added to initiate the reaction. After incubation for the corresponding time, an appropriate amount of ice-cold acetonitrile containing an internal standard was added to terminate the reaction. The mixture was vortexed to mix well, centrifuged, and the supernatant was taken. The supernatant was injected into LC-MS/MS to determine the production amount of metabolites of the probe substrate. Taking the enzyme activity at the 0-concentration point (characterized by the production amount of metabolites) as 100%, the percentage of residual enzyme activity of metabolites at different concentrations of the test compound was calculated. IC50 was calculated by the residual enzyme activity using Graphpad Prism software.

Series [3] concerns the target T2, CYP2C9 (Homo sapiens, UniProt P11712).
T2 construct: human liver microsomes were used as the CYP450 enzyme source; from tissue; host or cells: human liver microsomes
The description is as above. The format is in vitro ADME. Particulars: human liver microsomes; read-out: Inhibitory activity on drug-metabolizing enzymes (IC50, µM) CYP2C9.
Source text: as §1, §2

Series [4] concerns the target T3, CYP3A4 (Homo sapiens, UniProt P08684).
T3 construct: human liver microsomes were used as the CYP450 enzyme source; from tissue; host or cells: human liver microsomes
As to the kind of experiment: Inhibition of hepatic drug-metabolizing enzymes in human liver microsomes (substrates midazolam and testosterone). The format is in vitro ADME.
Source text: as §1, §2

The nature of series [5]: Rat pharmacokinetic test. Particulars: plasma, male SD rats, IV 1 mg/kg, PO 5 mg/kg via gavage. The format is in vivo. As for the experimental part: Male SD rats, weighing 200-250 g, were used and divided into two groups based on the principle of similar body weight, with 3 rats in each of the IV group and the PO group. The IV group was administered the test compound at a dose of 1 mg/kg via intravenous injection, and the PO group was administered the test compound at a dose of 5 mg/kg via gavage. Whole blood was collected from the IV group respectively before administration and at 0.083, 0.25, 0.5, 1, 2, 4, 6, 8, and 24 h after administration; for the PO group, whole blood was collected before administration and at 0.25, 0.5, 1, 2, 4, 6, 8, and 24 h after administration. The blood samples were placed in K2-EDTA anticoagulant tubes, centrifuged (4°C) within 30 min to separate plasma, and stored at -80°C for subsequent testing. During sample processing, an appropriate amount of acetonitrile containing an internal standard was used for protein precipitation, vortexed, and after centrifugation, the supernatant was taken for injection into LC-MS/MS for detection. Based on the measured plasma drug concentrations, the main pharmacokinetic parameters were calculated to evaluate its pharmacokinetic behavior. The main pharmacokinetic parameters were analyzed by the non-compartmental model using WinNonLin 8.3 software.

The nature of series [6]: Mouse pharmacokinetic test. The following applies: plasma, female Balb/c mice, IV 1 mg/kg, PO 10 mg/kg via gavage. Type of series: in vivo. Here is the method:
Female Balb/c mice, weighing 19-21 g, were divided into two groups based on the principle of similar body weight, with 9 mice in each of the IV group and the PO group (for cross blood collection). The IV group was administered the test compound at a dose of 1 mg/kg via intravenous injection, and the PO group was administered the test compound at a dose of 10 mg/kg via gavage. Whole blood was collected from the IV group before administration and at 0.083, 0.25, 0.5, 1, 2, 4, 6, 8, and 24 h after administration; for the PO group, whole blood was collected before administration and at 0.25, 0.5, 1, 2, 4, 6, 8, and 24 h after administration. The blood samples were placed in K2-EDTA anticoagulant tubes, centrifuged (4°C) within 30 minutes to separate plasma, and stored at -80°C for subsequent testing. During sample processing, an appropriate amount of acetonitrile containing an internal standard was used for protein precipitation, vortexed, and after centrifugation, the supernatant was taken for injection into LC-MS/MS for detection. Based on the measured plasma drug concentrations, the main pharmacokinetic parameters were calculated to evaluate its pharmacokinetic behavior. The main pharmacokinetic parameters were analyzed by the non-compartmental model using WinNonLin 8.3 software.

Molecules are shown by their SMILES.

T3 sequence (P08684 whole entry): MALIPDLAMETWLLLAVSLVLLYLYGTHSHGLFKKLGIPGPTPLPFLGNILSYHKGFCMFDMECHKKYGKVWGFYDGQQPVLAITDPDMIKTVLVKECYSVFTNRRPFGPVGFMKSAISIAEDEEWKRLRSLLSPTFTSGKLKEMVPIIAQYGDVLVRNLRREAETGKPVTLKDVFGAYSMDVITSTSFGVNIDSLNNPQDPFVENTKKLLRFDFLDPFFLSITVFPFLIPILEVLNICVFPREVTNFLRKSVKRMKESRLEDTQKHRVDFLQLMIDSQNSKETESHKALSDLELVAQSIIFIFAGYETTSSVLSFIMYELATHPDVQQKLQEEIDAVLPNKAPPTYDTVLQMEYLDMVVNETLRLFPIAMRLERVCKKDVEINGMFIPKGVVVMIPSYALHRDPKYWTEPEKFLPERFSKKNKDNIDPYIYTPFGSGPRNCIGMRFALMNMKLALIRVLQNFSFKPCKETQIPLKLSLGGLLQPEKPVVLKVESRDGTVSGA
T2 sequence (P11712 whole entry): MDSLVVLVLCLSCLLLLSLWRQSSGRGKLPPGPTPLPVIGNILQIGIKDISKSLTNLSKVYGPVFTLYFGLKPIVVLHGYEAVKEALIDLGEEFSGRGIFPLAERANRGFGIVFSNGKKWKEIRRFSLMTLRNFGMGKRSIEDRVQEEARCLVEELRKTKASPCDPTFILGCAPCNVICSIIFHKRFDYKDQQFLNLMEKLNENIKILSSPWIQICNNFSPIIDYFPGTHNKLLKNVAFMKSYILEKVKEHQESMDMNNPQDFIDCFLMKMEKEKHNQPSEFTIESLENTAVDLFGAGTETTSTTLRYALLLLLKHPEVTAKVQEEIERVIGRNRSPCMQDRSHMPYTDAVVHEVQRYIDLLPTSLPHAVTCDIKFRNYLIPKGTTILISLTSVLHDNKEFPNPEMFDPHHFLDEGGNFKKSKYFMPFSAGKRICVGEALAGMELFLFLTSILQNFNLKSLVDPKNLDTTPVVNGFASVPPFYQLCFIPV
T1 sequence (P33261 whole entry): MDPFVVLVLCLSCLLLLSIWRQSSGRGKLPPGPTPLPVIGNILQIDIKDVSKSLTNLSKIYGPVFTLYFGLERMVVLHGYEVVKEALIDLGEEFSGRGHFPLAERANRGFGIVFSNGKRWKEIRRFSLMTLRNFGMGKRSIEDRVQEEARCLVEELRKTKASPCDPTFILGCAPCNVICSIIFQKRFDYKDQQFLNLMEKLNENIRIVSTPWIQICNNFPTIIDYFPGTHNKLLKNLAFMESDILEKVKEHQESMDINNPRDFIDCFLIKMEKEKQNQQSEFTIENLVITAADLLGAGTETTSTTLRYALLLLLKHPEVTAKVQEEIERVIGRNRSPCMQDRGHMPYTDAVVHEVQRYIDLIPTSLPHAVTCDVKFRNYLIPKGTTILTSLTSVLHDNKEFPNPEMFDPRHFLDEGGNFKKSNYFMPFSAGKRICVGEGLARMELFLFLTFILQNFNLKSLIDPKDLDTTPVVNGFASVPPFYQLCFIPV

As to `Cc1c(C#N)cccc1[C@@H](C)Nc1nnc(C)c2cnc(N3CCOCC3)cc12` [MRTX0902, reference compound], in series [1] (NADPH, 37°C), the half-life – broadly, the time needed for the level to fall by half in the phase considered – at 1 µM is 2.9 min. Also, the CLint scaled at 1 µM in series [1] (calculated from T1/2, fu defaulted to 1, read-out: CL(liver)) was 51.9 mL/min/kg. The IC50 – broadly, the concentration that inhibits the measured activity by half – stood at 8.62 µM in series [2]; 4 µM in series [3]; 6.9 µM in series [4] (Inhibitory activity on drug-metabolizing enzymes (IC50, µM) CYP3A4-M, substrate midazolam); 8.75 µM in series [4] (Inhibitory activity on drug-metabolizing enzymes (IC50, µM) CYP3A4-T, substrate testosterone). In addition, the bioavailability (as a rule, the share of a dose that reaches the circulation, judged against a reference dose that is usually intravenous) in series [5] worked out at 22.6%; in series [6], 40.4%.
